In assay [1] the test system is YB5 cells. Briefly: GFP reactivation in YB5 cell-based system (flow cytometry). More on the design: species or system human. How it is done:
YB5 cells are derived from SW48 cells (human colon cancer cell line), and contain a single insertion of a DNA hypermethylated cytomegalovirus (CMV) promoter driving the green fluorescent protein (GFP) gene, as previously described. YB5 cells are cultured in L-15 medium supplemented with 10% fetal bovine serum and grown in log-phase in 1% CO2 atmosphere. YB5 cells were authenticated by DNA fingerprinting prior to drug screening and validation experiments. GFP expression in YB5 cells is silenced in >99.9% of the cells due to the CMV promoter DNA hypermethylation and repressive chromatin marks around the transcriptional start site. The human HCT116 colon cancer-derived GFP-reporter system, comprising a GFP gene under the control of an endogenously hypermethylated SFRP1 gene promoter, was kindly provided by Dr. Stephen Baylin (Johns Hopkins University). These cells are cultured in McCoy’s 5A medium supplemented with 10% fetal bovine serum and grown in log-phase in 5% CO2 atmosphere at 37 °C. The 451-Lu-BR melanoma cells were a kind gift from Dr. Raza Zaidi (Fels Institute for Cancer Research and Molecular Biology, Temple University School of Medicine, Philadelphia). These cells are derived from parental 451-LU cells that have acquired resistance to BRAF inhibitors. The 451-Lu-BR cells were cultured at 37 °C in Dulbecco’s Modified Eagle Medium (DMEM) supplemented with 10% fetal bovine serum, L-alanyl-L-glutamine (2 mM), and gentamycin (50 µg/mL) in 5% CO2 at 37 °C. The natural drug library (natural product set II) containing 120 compounds was obtained from the National Cancer Institute Developmental Therapeutics Program. Natural compounds were dissolved in DMSO (10 mM) in 96-well plates that were kept at −80°C until use. Toyocamycin, analogues of toyocamycin (sangivamycin, tubercidin, 3-deaza-adenosine, DZNep), CDK inhibitors, and epigenetic drugs (decitabine, SAHA, trichostatin A, depsipeptide) were purchased from Sigma-Aldrich (St. Louis, MO, USA,) for validation studies, dissolved in DMSO, and kept at −80 °C until use.
YB5 cells were seeded at 30,000 cell/mL in 96-well plates (6000 cells/well) and treated 3 days after seeding. Cells were exposed to 120 natural compounds in 5 different experimental conditions: (1) 72 h exposure at 10 µM followed by 24 h recovery period prior to analysis; (2) 24 h treatment at 50 µM prior to analysis; (3) 72 h exposure at 10 µM of the compound library followed by 24 h treatment with HDAC inhibitor trichostatin A (200 nM) prior to analysis; (4) 72 h exposure at 10 µM in simultaneous combination with decitabine (50 nM) followed by 24 h recovery period prior to analysis; and (5) 72 h treatment with decitabine (50 nM) followed by 24 h exposure with the natural compound library (50 µM) prior to analysis. The scheme of different dose schedules is shown Figure S1A. During screening, drugs and cell culture media were replaced every day. To ensure the quality and the reproducibility of the screen, each 96-well plate was designed to include 80 natural compounds, 4 untreated wells, 4 wells treated with decitabine (50 nM, 72 h), 4 wells treated with trichostatin A (200 nM, 24 h), and their combination with decitabine (50 nM, 72 h) followed by trichostatin A treatment (200 nM, 24 h) prior to flow cytometry analysis. The percentage of GFP-expressing cells in control wells (untreated or treated with known epigenetic drugs) was measured and was reproducible between different plates.
After treatment, YB5 cells were trypsinized for 15 min and resuspended in L-15 media containing propidium iodide (PI) to stain dead cells. GFP expression and PI staining were quantified by a BD LSR II flow cytometer (BD Biosciences, San Jose, CA, USA). A maximum of 10,000 cells was analyzed per well. Validations were performed using a Millipore Guava flow cytometer (EMD, Millipore, Burlington, MA, USA). […]
On the technique in general: A flow cytometer gives signals particle by particle.

The test system of assay [2] is HCT116 SFRP1-GFP colon cancer cells. The assay can be described thus: GFP reactivation in HCT116 SFRP1-GFP model. It counts as cell-based, human. Conditions: dose-response. As to the method:
YB5 cells are derived from SW48 cells (human colon cancer cell line), and contain a single insertion of a DNA hypermethylated cytomegalovirus (CMV) promoter driving the green fluorescent protein (GFP) gene, as previously described. YB5 cells are cultured in L-15 medium supplemented with 10% fetal bovine serum and grown in log-phase in 1% CO2 atmosphere. YB5 cells were authenticated by DNA fingerprinting prior to drug screening and validation experiments. GFP expression in YB5 cells is silenced in >99.9% of the cells due to the CMV promoter DNA hypermethylation and repressive chromatin marks around the transcriptional start site. The human HCT116 colon cancer-derived GFP-reporter system, comprising a GFP gene under the control of an endogenously hypermethylated SFRP1 gene promoter, was kindly provided by Dr. Stephen Baylin (Johns Hopkins University). These cells are cultured in McCoy’s 5A medium supplemented with 10% fetal bovine serum and grown in log-phase in 5% CO2 atmosphere at 37 °C. […]
After treatment, YB5 cells were trypsinized for 15 min and resuspended in L-15 media containing propidium iodide (PI) to stain dead cells. GFP expression and PI staining were quantified by a BD LSR II flow cytometer (BD Biosciences, San Jose, CA, USA). A maximum of 10,000 cells was analyzed per well. […]

Assay [3] relates to YB5 cells. The assay can be described thus: anchorage-dependent clonogenic assay. The assay is classed as cell-based, human. As to conditions: 2 weeks drug-free. How it is done:
Two hundred YB5 cells were seeded per well in 6-well plates. On the following day, YB5 cells were treated with toyocamycin for 24 h or 72 h. Decitabine (10–50 nM for 72 h) was used as a positive control for the loss of clonogenic potential. Drugs and media were replaced each day. After treatment, media was removed. YB5 cells were grown in drug-free media for 2 weeks to allow visible colony formation prior to colony staining (0.5% methylene blue in 50% methanol). YB5 colonies were counted manually.

Consider one compound from PMC9324262, “Selective CDK9 Inhibition by Natural Compound Toyocamycin in Cancer Cells” (Cancers, 2022).

Entries after “also recorded” stand apart in the source; their conditions may differ.

Consider `N#Cc1cn([C@@H]2O[C@H](CO)[C@@H](O)[C@H]2O)c2ncnc(N)c12` [toyocamycin, 7-Deaza-7-cyanoadenosine], for which the “GFP-expressing YB5 cells” value in assay [1] (250 nM, 48 h) is “about 10%”. Further, the “YB5 cells expressing GFP” value in assay [1] (5 µM, 72 h) is listed as “More than 60%”. Also, the “GFP expression, % of YB5 cells” value in assay [1] (sequential combination with decitabine, toyocamycin 0.5–5 µM) is reported as “up to 40%”. Further, the “GFP-expressing cells with CDK9 overexpression (HA-CDK9, FLAG-CDK9)” value in assay [1] (toyocamycin 250 nM 48 h, MC180295 500 nM 48 h) is listed as “reduction in the number of GFP-expressing cells”. In assay [2], the GFP expression result was “induced dose-dependent GFP expression”. Moreover, the colony formation entry in assay [3] (10 nM, 24 h treatment) is reported as “completely abrogated colony formation; also recorded: full eradication of the clonogenic potential”; in assay [3] (10–50 nM, 72 h treatment) it was “fully abolished colony formation”.
